According to patent publication US20060127890A1, “Novel gene overexpressed in heart and skeletal muscle and use thereof” (priority 2000, published 2006):

System: rat 187-2 gene
Assay: Expression analysis of the rat 187-2 gene in H9c2 cells by TaqMan PCR upon norepinephrine stimulation
Format: cell-based
Conditions: serum-free DMEM, norepinephrine 10 nM or 100 nM, after 4 and 8 hours, corrected on G3PDH, versus absence of norepinephrine
Description: H9c2 cells are a cell strain derived from rat myocardial cells, and were purchased from ATCC. The cells were cultured in DMEM medium containing 10% bovine serum, and the cells were recovered using trypsin, inoculated at a density of 100000 cells/well of a 12-well plate and cultured for 12 hours in DMEM medium containing 10% bovine serum. Thereafter, the medium was exchanged with serum-free DMEM, and 10 nM norepinephrine was added at a concentration of 10 nM or 100 nM to the medium, and after 4 and 8 hours, the amount of the rat 187-2 gene expressed was quantified by TaqMan PCR.

NC[C@H](O)c1ccc(O)c(O)c1 [norepinephrine]
amount of the rat 187-2 gene expressed (maximum level): about twice that in the absence of norepinephrine
